Results from patent US12011444B2, “N-substituted indole derivatives as PGE2 receptor modulators” (Idorsia Pharmaceuticals Ltd, priority 2015, dated 2024).

What was measured:
PTGER2 (EP2) = PTGER2 (EP2) (Homo sapiens (Human), UniProt P43116); assay: hEP2 b-arrestin assay (PathHunter HEK 293 PTGER2 b-arrestin cells); format: cell-based; settings: hEP2 b-arrestin assay (values without asterisk)
Outline: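 Readout is β-galactosidase complementation luminescence, expressed as percent of DMSO control (duplicates). PathHunter HEK293 EP2/β-arrestin 2 cells, grown 24 h, received compound for 15 min at 37 °C before a 120 min challenge with PGE2 at 5 μM final, followed by 1 h detection at room temperature.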

PTRGER4 (EP4) = PTRGER4 (EP4) (Homo sapiens (Human), UniProt P35408); assay: hEP4 b-arrestin assay (PathHunter HEK 293 PTGER4 b-arrestin cells); format: cell-based; settings: hEP4 b-arrestin assay (values without asterisk)
Outline: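 Antagonist mode: compound is given 15 min at 37 °C, then 20 nM (final) PGE2 for 120 min, in HEK293 cells stably expressing EP4 fused to ProLink and β-arrestin 2 fused to EA. Recruitment read as β-gal luminescence after 1 h reagent at room temperature, as percent of DMSO control.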

Chain of PTRGER4 (EP4) (P35408 whole entry, looked up, the tested form may be a part): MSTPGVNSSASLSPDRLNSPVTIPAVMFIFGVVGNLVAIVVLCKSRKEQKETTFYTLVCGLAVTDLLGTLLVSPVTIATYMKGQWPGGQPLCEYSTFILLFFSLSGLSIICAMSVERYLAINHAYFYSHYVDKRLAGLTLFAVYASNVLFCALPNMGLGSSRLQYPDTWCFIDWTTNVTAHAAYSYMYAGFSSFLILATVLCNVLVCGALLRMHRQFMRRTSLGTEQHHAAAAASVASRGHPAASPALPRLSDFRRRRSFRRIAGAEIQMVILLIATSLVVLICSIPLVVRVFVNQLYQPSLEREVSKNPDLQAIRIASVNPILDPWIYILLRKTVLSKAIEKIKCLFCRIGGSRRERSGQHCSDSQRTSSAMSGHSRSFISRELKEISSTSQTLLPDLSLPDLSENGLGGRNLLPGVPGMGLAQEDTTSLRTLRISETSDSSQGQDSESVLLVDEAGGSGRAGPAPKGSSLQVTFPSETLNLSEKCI
Chain of PTGER2 (EP2) (P43116 whole entry): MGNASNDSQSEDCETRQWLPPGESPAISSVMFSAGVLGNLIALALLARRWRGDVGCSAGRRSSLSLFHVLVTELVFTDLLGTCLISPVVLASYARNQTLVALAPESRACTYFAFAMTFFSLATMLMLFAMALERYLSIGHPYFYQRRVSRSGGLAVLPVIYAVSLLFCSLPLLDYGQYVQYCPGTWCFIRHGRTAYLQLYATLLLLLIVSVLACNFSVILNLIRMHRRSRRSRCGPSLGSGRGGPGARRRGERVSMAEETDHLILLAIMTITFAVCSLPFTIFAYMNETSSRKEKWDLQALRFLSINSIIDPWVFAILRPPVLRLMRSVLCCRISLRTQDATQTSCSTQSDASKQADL

CCOc1cc(-c2cc(NCCn3c(C#N)cc4c(OC)ccc(F)c43)ncn2)sc1C(=O)OCC(=O)N(C)C [Example 1044, 5-{6-[2-(2-Cyano-7-fluoro-4-methoxy-indol-1-yl)-ethylamino]-pyrimidin-4-yl}-3-ethoxy-thiophene-2-carboxylic acid dimethylcarbamoylmethyl ester]
IC50 (PTGER2 (EP2)): 9 nM
IC50 (PTRGER4 (EP4)): 3 nM

CCCC(=O)OCOC(=O)c1sc(-c2cc(NCCn3c(C#N)cc4c(OC)ccc(F)c43)ncn2)cc1OCC [Example 1045, 5-{6-[2-(2-Cyano-7-fluoro-4-methoxy-indol-1-yl)-ethylamino]-pyrimidin-4-yl}-3-ethoxy-thiophene-2-carboxylic acid butyryloxymethyl ester]
IC50 (PTGER2 (EP2)): 16 nM
IC50 (PTRGER4 (EP4)): 4 nM

CCOC(=O)OCOC(=O)c1sc(-c2cc(NCCn3c(C#N)cc4c(OC)ccc(F)c43)ncn2)cc1OCC [Example 1046, 5-{6-[2-(2-Cyano-7-fluoro-4-methoxy-indol-1-yl)-ethylamino]-pyrimidin-4-yl}-3-ethoxy-thiophene-2-carboxylic acid ethoxycarbonyloxymethyl ester]
IC50 (PTGER2 (EP2)): 27 nM
IC50 (PTRGER4 (EP4)): 5 nM

CCOc1cc(-c2cc(NCCn3c(C#N)cc4c(OC)ccc(F)c43)ncn2)sc1C(=O)OCc1oc(=O)oc1C [Example 1047, 5-{6-[2-(2-Cyano-7-fluoro-4-methoxy-indol-1-yl)-ethylamino]-pyrimidin-4-yl}-3-ethoxy-thiophene-2-carboxylic acid 5-methyl-2-oxo-[1,3]dioxol-4-ylmethyl ester]
IC50 (PTGER2 (EP2)): 5 nM
IC50 (PTRGER4 (EP4)): 3 nM

CCOc1cc(-c2cc(NCCn3c(C#N)cc4c(OC)ccc(F)c43)ncn2)sc1C(=O)OCCN(C)C [Example 1048, 5-{6-[2-(2-Cyano-7-fluoro-4-methoxy-indol-1-yl)-ethylamino]-pyrimidin-4-yl}-3-ethoxy-thiophene-2-carboxylic acid 2-dimethylamino-ethyl ester]
IC50 (PTGER2 (EP2)): 10 nM
IC50 (PTRGER4 (EP4)): 4 nM

CCOc1cc(-c2cc(NCCn3c(C#N)cc4c(OC)ccc(F)c43)ncn2)sc1C(=O)Oc1ccccc1 [Example 1049, 5-{6-[2-(2-Cyano-7-fluoro-4-methoxy-indol-1-yl)-ethylamino]-pyrimidin-4-yl}-3-ethoxy-thiophene-2-carboxylic acid phenyl ester]
IC50 (PTGER2 (EP2)): 21 nM
IC50 (PTRGER4 (EP4)): 10 nM

CCOC(=O)C#Cc1ccc(-c2cc(NCCn3c(C#N)cc4c(OC)ccc(F)c43)ncn2)cc1OC [Example 1050, (4-{6-[2-(2-Cyano-7-fluoro-4-methoxy-indol-1-yl)-ethylamino]-pyrimidin-4-yl}-2-methoxy-phenyl)-propynoic acid ethyl ester]
IC50 (PTGER2 (EP2)): 34 nM
IC50 (PTRGER4 (EP4)): 19 nM

CCOc1cc(-c2cc(NCCn3c(C)cc4c(OC)ccc(F)c43)ncn2)sc1-c1nnn[nH]1 [Example 1051, {6-[4-Ethoxy-5-(1H-tetrazol-5-yl)-thiophen-2-yl]-pyrimidin-4-yl}-[2-(7-fluoro-4-methoxy-2-methyl-indol-1-yl)-ethyl]-amine]
IC50 (PTGER2 (EP2)): 2 nM
IC50 (PTRGER4 (EP4)): 4 nM

CCOc1cc(-c2cc(NCCn3c(C)cc4c(OC)ccc(F)c43)ncn2)sc1C(=N)NO [Example 1052, 3-Ethoxy-5-{6-[2-(7-fluoro-4-methoxy-2-methyl-indol-1-yl)-ethylamino]-pyrimidin-4-yl}-N-hydroxy-thiophene-2-carboxamidine]
IC50 (PTGER2 (EP2)): 3 nM
IC50 (PTRGER4 (EP4)): 7 nM

CCOc1cc(-c2cc(NCCn3c(C)cc4c(OC)ccc(F)c43)ncn2)sc1C(C)O (stereo not shown) [Example 1053, 1-(3-Ethoxy-5-{6-[2-(7-fluoro-4-methoxy-2-methyl-indol-1-yl)-ethylamino]-pyrimidin-4-yl}-thiophen-2-yl)-ethanol]
IC50 (PTGER2 (EP2)): 10 nM
IC50 (PTRGER4 (EP4)): 100 nM

CCOc1cc(-c2cc(NCCn3c(C)cc4c(OC)ccc(F)c43)ncn2)sc1-c1noc(=O)[nH]1 [Example 1054, 3-(3-Ethoxy-5-{6-[2-(7-fluoro-4-methoxy-2-methyl-indol-1-yl)-ethylamino]-pyrimidin-4-yl}-thiophen-2-yl)-[1,2,4]oxadiazol-5(4H)-one]
IC50 (PTGER2 (EP2)): 1 nM
IC50 (PTRGER4 (EP4)): 1 nM

COc1ccc(F)c2c1cc(C#N)n2CCNc1cc(-c2ccc(C3(F)COC3)s2)ncn1 [Example 1055, 7-Fluoro-1-(2-{6-[5-(3-fluoro-oxetan-3-yl)-thiophen-2-yl]-pyrimidin-4-ylamino}-ethyl)-4-methoxy-1H-indole-2-carbonitrile]
IC50 (PTGER2 (EP2)): 249 nM
IC50 (PTRGER4 (EP4)): 60 nM

COC(=O)N(C)c1ccc(-c2cc(NCCn3c(C#N)cc4c(OC)ccc(F)c43)ncn2)cc1 [Example 1056, (4-{6-[2-(2-Cyano-7-fluoro-4-methoxy-indol-1-yl)-ethylamino]-pyrimidin-4-yl}-phenyl)-methyl-carbamic acid methyl ester]
IC50 (PTGER2 (EP2)): 120 nM
IC50 (PTRGER4 (EP4)): 119 nM

CCOc1cc(-c2cc(NCCn3c(C)c(F)c4c(OC)ccc(F)c43)ncn2)sc1C(=O)O [Example 1057, 5-{6-[2-(3,7-Difluoro-4-methoxy-2-methyl-indol-1-yl)-ethylamino]-pyrimidin-4-yl}-3-ethoxy-thiophene-2-carboxylic acid]
IC50 (PTGER2 (EP2)): 6 nM
IC50 (PTRGER4 (EP4)): 9 nM

COc1ccc(F)c2c1c(F)c(C)n2CCNc1cc(-c2cc(C(F)(F)F)c(C(=O)O)s2)ncn1 [Example 1058, 5-{6-[2-(3,7-Difluoro-4-methoxy-2-methyl-indol-1-yl)-ethylamino]-pyrimidin-4-yl}-3-trifluoromethyl-thiophene-2-carboxylic acid]
IC50 (PTGER2 (EP2)): 51 nM
IC50 (PTRGER4 (EP4)): 19 nM

COc1ccc(F)c2c1c(F)c(C#N)n2CCNc1cc(-c2cc(C(F)(F)F)c(C(=O)O)s2)ncn1 [Example 1059, 5-{6-[2-(2-Cyano-3,7-difluoro-4-methoxy-indol-1-yl)-ethylamino]-pyrimidin-4-yl}-3-trifluoromethyl-thiophene-2-carboxylic acid]
IC50 (PTGER2 (EP2)): 54 nM
IC50 (PTRGER4 (EP4)): 3 nM

COc1ccc(F)c2c1cc(C)n2CCNc1cc(-c2cc(C(F)(F)F)c(-c3nn[nH]n3)s2)ncn1 [Example 1060, [2-(7-Fluoro-4-methoxy-2-methyl-indol-1-yl)-ethyl]-{6-[5-(2H-tetrazol-5-yl)-4-trifluoromethyl-thiophen-2-yl]-pyrimidin-4-yl}-amine]
IC50 (PTGER2 (EP2)): 17 nM
IC50 (PTRGER4 (EP4)): 36 nM

COc1ccc(F)c2c1cc(C)n2CCNc1cc(-c2cc(C(F)(F)F)c(C(=N)NO)s2)ncn1 [Example 1061, 5-{6-[2-(7-Fluoro-4-methoxy-2-methyl-indol-1-yl)-ethylamino]-pyrimidin-4-yl}-N-hydroxy-3-trifluoromethyl-thiophene-2-carboxamidine]
IC50 (PTGER2 (EP2)): 19 nM
IC50 (PTRGER4 (EP4)): 36 nM

COc1ccc(F)c2c1cc(C)n2CCNc1cc(-c2cc(C(F)(F)F)c(-c3noc(=O)[nH]3)s2)ncn1 [Example 1062, 3-(5-{6-[2-(7-Fluoro-4-methoxy-2-methyl-indol-1-yl)-ethylamino]-pyrimidin-4-yl}-3-trifluoromethyl-thiophen-2-yl)-[1,2,4]oxadiazol-5(4H)-one]
IC50 (PTGER2 (EP2)): 33 nM
IC50 (PTRGER4 (EP4)): 13 nM

COc1ccc(F)c2c1cc(C#N)n2CCNc1cc(-c2ccc3c(=O)[nH][nH]c(=O)c3c2)ncn1 [Example 1064, 1-{2-[6-(1,4-Dioxo-1,2,3,4-tetrahydro-phthalazin-6-yl)-pyrimidin-4-ylamino]-ethyl}-7-fluoro-4-methoxy-1H-indole-2-carbonitrile]
IC50 (PTGER2 (EP2)): 25 nM
IC50 (PTRGER4 (EP4)): 151 nM
